Source: ChEMBL document CHEMBL3885881, “DrugMatrix”

Organism: Rattus norvegicus
Assay: DrugMatrix - Regimen: Daily Repeat
Type: toxicity, organism-based, Sprague-Dawley
Design: regimen Daily Repeat, gender Male, age 6-8 weeks
Details: in vivo, po, 0 mg/kg, route oral GAVAGE, dose level Control, vehicle 100 % SALINE; for ABSOLUTE BASOPHIL / ABSOLUTE EOSINOPHIL / ABSOLUTE LYMPHOCYTE / ABSOLUTE MONOCYTE / BASOPHIL / EOSINOPHIL / ERYTHROCYTE COUNT / HEMATOCRIT / HEMOGLOBIN / LEUKOCYTE COUNT / LYMPHOCYTE / MEAN CORPUSCULAR HEMOGLOBIN / MEAN CORPUSCULAR HEMOGLOBIN CONCENTRATION / MEAN CORPUSCULAR VOLUME / MONOCYTE / NEUTROPHIL / PLATELET COUNT: tissue Blood
[1] = 72 h, tissue Plasma, time 3 day
[2] = 120 h, tissue Plasma, time 5 day

Structure (SMILES): Nc1ncnc2c1ncn2[C@@H]1O[C@H](CO)[C@@H](O)[C@H]1F [2'-BETA-FLUORO-2',3'-DEOXYADENOSINE]
- ABSOLUTE BASOPHIL (72 h, time 3 day): 140 cells/µL
- ABSOLUTE EOSINOPHIL (72 h, time 3 day): 43.3 cells/µL
- ABSOLUTE LYMPHOCYTE (72 h, time 3 day): 7570 cells/µL
- ABSOLUTE MONOCYTE (72 h, time 3 day): 160 cells/µL
- BASOPHIL (72 h, time 3 day): 1.47%
- EOSINOPHIL (72 h, time 3 day): 0.47%
- ERYTHROCYTE COUNT (72 h, time 3 day): 6.68 x10E6/uL
- HEMATOCRIT (72 h, time 3 day): 44.33%
- HEMOGLOBIN (72 h, time 3 day): 14.43 G/DL
- LEUKOCYTE COUNT (72 h, time 3 day): 9.33 x10E3/uL
- LYMPHOCYTE (72 h, time 3 day): 81.23%
- MEAN CORPUSCULAR HEMOGLOBIN (72 h, time 3 day): 21.67 pg
- MEAN CORPUSCULAR HEMOGLOBIN CONCENTRATION (72 h, time 3 day): 32.6 G/DL
- MEAN CORPUSCULAR VOLUME (72 h, time 3 day): 66.43 fL
- MONOCYTE (72 h, time 3 day): 1.73%
- NEUTROPHIL (72 h, time 3 day): 14.7%
- PLATELET COUNT (72 h, time 3 day): 1341.67 x10E3/uL
- ALANINE AMINOTRANSFERASE [1]: 31 u/L
- ALBUMIN [1]: 4.03 G/DL
- ALKALINE PHOSPHATASE [1]: 447 u/L
- ASPARTATE AMINOTRANSFERASE [1]: 61.33 u/L
- BLOOD UREA NITROGEN [1]: 15.67 mg/dL
- CARBON DIOXIDE [1]: 43 mmol/L
- CHLORIDE [1]: 103.33 MEQ/L
- CHOLESTEROL [1]: 83.67 mg/dL
- CREATINE PHOSPHOKINASE [1]: 174.33 u/L
- CREATININE [1]: 0.4 mg/dL
- GLUCOSE [1]: 173 mg/dL
- LACTATE DEHYDROGENASE [1]: 87.67 u/L
- LIPASE [1]: 17.33 u/L
- PHOSPHORUS [1]: 10.27 mg/dL
- POTASSIUM [1]: 6.47 MEQ/L
- SODIUM [1]: 143.67 MEQ/L
- TOTAL BILIRUBIN [1]: 0.37 mg/dL
- TOTAL PROTEIN [1]: 6.63 G/DL
- URIC ACID [1]: 1.03 mg/dL
- ABSOLUTE BASOPHIL (120 h, time 5 day): 53.3 cells/µL
- ABSOLUTE EOSINOPHIL (120 h, time 5 day): 210 cells/µL
- ABSOLUTE LYMPHOCYTE (120 h, time 5 day): 8220 cells/µL
- ABSOLUTE MONOCYTE (120 h, time 5 day): 200 cells/µL
- BASOPHIL (120 h, time 5 day): 0.53%
- EOSINOPHIL (120 h, time 5 day): 2.1%
- ERYTHROCYTE COUNT (120 h, time 5 day): 7 x10E6/uL
- HEMATOCRIT (120 h, time 5 day): 44%
- HEMOGLOBIN (120 h, time 5 day): 14.53 G/DL
- LEUKOCYTE COUNT (120 h, time 5 day): 10.44 x10E3/uL
- LYMPHOCYTE (120 h, time 5 day): 78.07%
- MEAN CORPUSCULAR HEMOGLOBIN (120 h, time 5 day): 20.77 pg
- MEAN CORPUSCULAR HEMOGLOBIN CONCENTRATION (120 h, time 5 day): 33 G/DL
- MEAN CORPUSCULAR VOLUME (120 h, time 5 day): 62.87 fL
- MONOCYTE (120 h, time 5 day): 1.87%
- NEUTROPHIL (120 h, time 5 day): 16.8%
- PLATELET COUNT (120 h, time 5 day): 1104.33 x10E3/uL
- ALANINE AMINOTRANSFERASE [2]: 31.67 u/L
- ALBUMIN [2]: 3.93 G/DL
- ALKALINE PHOSPHATASE [2]: 394.67 u/L
- ASPARTATE AMINOTRANSFERASE [2]: 65.67 u/L
- BLOOD UREA NITROGEN [2]: 15.67 mg/dL
- CARBON DIOXIDE [2]: 40.67 mmol/L
- CHLORIDE [2]: 104.33 MEQ/L
- CHOLESTEROL [2]: 66.33 mg/dL
- CREATINE PHOSPHOKINASE [2]: 346.67 u/L
- CREATININE [2]: 0.33 mg/dL
- GLUCOSE [2]: 176.67 mg/dL
- LACTATE DEHYDROGENASE [2]: 109 u/L
- LIPASE [2]: 14.33 u/L
- PHOSPHORUS [2]: 11.17 mg/dL
- POTASSIUM [2]: 6.53 MEQ/L
- SODIUM [2]: 146 MEQ/L
- TOTAL BILIRUBIN [2]: 0.37 mg/dL
- URIC ACID [2]: 0.97 mg/dL
- ABSOLUTE BASOPHIL ([…], time 14 day): 93.3 cells/µL
- ABSOLUTE EOSINOPHIL ([…], time 14 day): 80 cells/µL
- ABSOLUTE LYMPHOCYTE ([…], time 14 day): 6890 cells/µL
- ABSOLUTE MONOCYTE ([…], time 14 day): 170 cells/µL
- BASOPHIL ([…], time 14 day): 1%
- EOSINOPHIL ([…], time 14 day): 0.83%
- ERYTHROCYTE COUNT ([…], time 14 day): 7.03 x10E6/uL
- HEMATOCRIT ([…], time 14 day): 43.4%
- HEMOGLOBIN ([…], time 14 day): 14.83 G/DL
- LEUKOCYTE COUNT ([…], time 14 day): 8.94 x10E3/uL
- LYMPHOCYTE ([…], time 14 day): 77.93%
- MEAN CORPUSCULAR HEMOGLOBIN ([…], time 14 day): 21.1 pg
- MEAN CORPUSCULAR HEMOGLOBIN CONCENTRATION ([…], time 14 day): 34.17 G/DL
- MEAN CORPUSCULAR VOLUME ([…], time 14 day): 61.77 fL
- MONOCYTE ([…], time 14 day): 1.33%
- NEUTROPHIL ([…], time 14 day): 18%
- PLATELET COUNT ([…], time 14 day): 1097.33 x10E3/uL
- ALANINE AMINOTRANSFERASE ([…], tissue Plasma, time 14 day): 32 u/L
